Source: patent publication US20220265644A1, “FIXED DOSE COMBINATION DRUG FOR THE TREATMENT OF MALARIA” (priority 2020, published 2022)

Experiments:
[1] = test system: P. vivax; experiment: Synriam Phase III, N=317, randomized, open label, multi-centric, uncomplicated P. vivax malaria; type: in vivo; conditions: Adults, Children >12 - 65 Y
[2] = test system: P. vivax; experiment: Synriam Phase III, N=164, randomized, open label, multi-centric, uncomplicated P. vivax malaria; type: in vivo; conditions: Children 6 months - 12 Y
[3] = test system: early ring stages from artemisinin-resistant and artemisinin-sensitive parasites (P. falciparum); experiment: Ring Stage Assay (RSA) as per WHO's recommendation; type: cell-based; conditions: at 700 nM

| Compound | Proportion of aparasitemic & afebrile patients at 72 h (%) ITT ([1]; 72 h, ITT) [%] | Proportion of aparasitemic & afebrile patients at 72 h (%) PP ([1]; 72 h, PP) [%] | FCT Median (h) ([1]; India) [vs. 24 h] | PCT Median ([1]; India) [h] | Proportion of aparasitemic & afebrile patients at 72 h (%) ITT ([2]; 72 h, ITT) [%] | Proportion of aparasitemic & afebrile patients at 72 h (%) PP ([2]; 72 h, PP) | FCT Median ([2]; India) [h] | PCT Median ([2]; India) [h] | cross-resistance to DHA [3] | activity against early ring stages ([3]; artemisinin-resistant and artemisinin-sensitive parasites) |
| --- | --- | --- | --- | --- | --- | --- | --- | --- | --- | --- |
| CCN(CC)CCCC(C)Nc1ccnc2cc(Cl)ccc12 (stereo not shown) [Chloroquine] | 98.7 | 99.3 | 24 | 26 | 100 | PP: 100 vs. 100% | 18 | 24 | – | – |
| Arterolane | – | – | – | – | – | – | – | – | no cross-resistance to DHA | extremely active |
